# How the values were obtained:
# Format in all cases: in vivo, rat
# [1] = tested on: carrageenan-induced inflammation; experiment: carrageenan-induced increase in paw size after intrathecal pre-administration of peptide
# Protocol: (§1) In Example 6, 10^−3M (10 nmol/10 μl) D-EKC/D (3), (5), or (7), Spantide I, or saline (10 μl) was administered to intrathecally catheterized rats via catheters. Four hours later, 100 μl of 2% carrageenan (2 mg/100 μl) was subcutaneously administered to rat plantar.
# Paw size was measured with time for 60 minutes after carrageenan administration. The paw size (control) before carrageenan administration was designated as the basal level, and the increases in paw size were then calculated.
# [2] = tested on: SP-induced thermal hyperalgesia; experiment: SP-induced thermal hyperalgesia (withdrawal latency) after intrathecal pre-administration of peptide; details: 10^-3M (10 nmol/10 μl) peptide intrathecal, FIG. 7
# Excerpt: In this test, the effects of intrathecal pre-administration with D-EKC/D (1), (2), and (3) on the induction of thermal hyperalgesia following intrathecal administration of SP were confirmed using as an index thermal hyperalgesia, which is one type of pain-related behavior. The effects can be evaluated based on withdrawal latency period, which is the time required for withdrawal response to take place after application of noxious thermal stimulation to plantar using infrared rays.
# In Example 4, 10^−3M (10 nmol/10 μl) D-EKC/D (1), (2), or (3) was administered to intrathecally catheterized rats via catheters, intrathecal administration of 10^−6M (10 pmol/10 μl) SP was performed at 4 hours and at 8 hours after administration of D-EKC/D, the presence or the absence of hyperalgesia following intrathecal administration of SP was evaluated based on the time (latency period) required for withdrawal response to take place, the latency period following SP administration in rats pretreated with D-EKC/D and the latency period resulting from administration of SP alone were compared, and thus the effects of preadministration of D-EKC/D (1), (2), and (3) were evaluated.
# [3] = tested on: carrageenan-induced thermal hyperalgesia; experiment: withdrawal latency to noxious thermal stimulation after carrageenan, intrathecal pre-administration of peptide; details: 10^-3M (10 nmol/10 μl) peptide intrathecal; 2% carrageenan 4 hours later; FIG. 9B
# Protocol: as §1
# Meanwhile, noxious thermal stimulation was applied to paw plantar using infrared rays at 10-minute intervals after carrageenan administration. The time (latency period) required for withdrawal response to take place was measured. The latency period before untreated rats following noxious thermal stimulation was designated as the control latency period.
# [4] = tested on: substance P-induced scratching behavior; experiment: substance P-induced scratching behavior after intrathecal pre-administration of test peptide
# Protocol: In Example 1, 10^−3M (10 nmol/10 μl) EKC/D or D-EKC/D (1), (2) or (3) was administered to intrathecally catheterized rats via catheters. After the predetermined time periods denoted on the horizontal axis in FIG. 1, the numbers of scratching events (scratching behavior) induced by intrathecal administration of 10^−3M (10 nmol/10 μl) substance P (hereafter, referred to as “SP”) were determined. Here, the expression “10^−3M (10 nmol/10 μl) EKC/D or D-EKC/D (1), (2), or (3) was administered” refers to a situation in which 10 μl in total of a solution (that is, 10^−3M solution) containing 10 nmol of EKC/D or D-EKC/D (1), (2), or (3) was all administered. The expression, “ . . . administration of 10^−3M substance P (10 nmol/10 μl)” refers to a situation in which 10 μl in total of a solution (that is, 10^−3M solution) containing 10 nmol of the substance was all administered. The same similarly applies below.
# Meanwhile, saline (10 μl) was intrathecally administered to intrathecally catheterized rats via catheters and then, after 30 minutes, 10^−3M SP (10 nmol/10 μl) was intrathecally administered to the rats. The number of the thus induced scratching events was determined to be the number of scratching events in the control group. The control group is denoted with saline-4-SP in FIG. 1.
# The vertical axis of the graph in FIG. 1 indicates changes in the numbers of scratching events (represented by relative values) due to administration of 10^−3M EKC/D or D-EKC/D (1), (2), or (3) when the number of scratching events (of untreated rats in a control group) induced by intrathecal administration of 10^−3M substance P was determined to be 100%. Meanwhile, the horizontal axis indicates the intervals between the administration of EKC/D, D-EKC/D (1), (2), or (3) and 10^−3M substance P. […]
# The test was conducted with procedures similar to those in Example 1, except for 4 hours of interval between the administration of each test peptide and the administration of substance P. The concentration of each test peptide and that of substance P for administration were determined to be 10^−3M (10 nmol/10 μl), similarly to Example 1. The number of scratching events in the control group was determined with procedures similar to those in Example 1, such that substance P was administered at 30 minutes after administration of saline (10 μl) and then the number was determined.
# [5] = tested on: formalin-induced pain behavior; experiment: formalin-induced pain behavior (flinching) after intrathecal pre-administration of peptide
# Protocol: In Example 5, 10^−3M (10 nmol/10 μl) D-EKC/D (3), (5), or (7), Spantide I, or saline (10 μl) was administered to intrathecally catheterized rats via catheters and then 4 hours later, 50 μl of 2% formalin was administered subcutaneously to hind paws of rats. The number of flinching (pain behavior) was determined for 60 minutes after formalin administration, so that the degree of pain could be evaluated. During the 10-minute period after formalin administration (referred to as phase I), pain behavior was measured once every 2 minutes (1 minute per measurement). During the period from 10 minutes to 60 minutes after formalin administration (referred to as phase II), pain behavior was measured once every 5 minutes (1 minute per measurement), so that the degree of pain could be evaluated. During phase I, behavior (phasic pain) resulting from chemical stimulation accompanying formalin administration was observed. During phase II, tonic pain following the phasic pain was observed.
# The horizontal axis indicates time (minutes) after formalin administration and the vertical axis indicates the measured number of pain behavior per minute.
substance,measurement,setting,value
Ala-Tyr-Gln-Leu-Glu-His-Thr-Phe-Gln-DTrp-Leu-Leu-NH2 (AYQLEHTFQXLL; HELM PEPTIDE1{A.Y.Q.L.E.H.T.F.Q.[dW].L.L.[am]}$$$$V2.0; N-terminus assumed; SMILES CC(C)C[C@H](NC(=O)[C@H](CC(C)C)NC(=O)[C@@H](Cc1c[nH]c2ccccc12)NC(=O)[C@H](CCC(N)=O)NC(=O)[C@H](Cc1ccccc1)NC(=O)[C@@H](NC(=O)[C@H](Cc1c[nH]cn1)NC(=O)[C@H](CCC(=O)O)NC(=O)[C@H](CC(C)C)NC(=O)[C@H](CCC(N)=O)NC(=O)[C@H](Cc1ccc(O)cc1)NC(=O)[C@H](C)N)[C@@H](C)O)C(N)=O) [D-EKC/D (3)],rate of increase of paw sizes,"[1]; 10^-3M (10 nmol/10 μl) peptide intrathecal, 2% carrageenan 4 hours later, FIG. 9A",significant decreases
same,effects on paw size and withdrawal time compared with Spantide I,"[1]; 10^-3M intrathecal, carrageenan 4 hours later",sustained to a greater extent than the effects of Spantide I
same,effect on latency period following administration of SP,"[2]; 10^-6M SP 4 hours later, saline about 20 seconds, SP about 13 seconds",significantly attenuated
same,effect on latency period following administration of SP,[2]; 10^-6M SP 8 hours later,significant attenuation
same,withdrawal time (latency period),[3],significant increases
same,"number of scratching events induced by substance P, relative to control group (saline+SP = 100%)","[4]; 10^-3M (10 nmol/10 μl) peptide intrathecal, 10^-3M SP 30 minutes after peptide, FIG. 1",about 20%
same,"number of scratching events induced by substance P, relative to control group","[4]; 10^-3M peptide intrathecal, administration interval of 45 minutes, FIG. 1",almost the same effects were exhibited
same,suppressive effects on substance P-induced scratching behavior,"[4]; Example 1, intervals of 4 hours, 8 hours, and 14 hours between peptide and SP, both 10^-3M",significant suppressive effects
same,scratching behavior induced by substance P,"[4]; Example 2, FIG. 2, 10^-3M peptide, SP 4 hours after peptide, control about 380 scratching",almost never induced
same,suppressive effects on scratching as administration interval is prolonged,"[4]; Example 2, FIG. 2, 10^-3M peptide, interval 8 hours and then 14 hours",gradually attenuated
same,scratching behavior induced by substance P / suppressive effects,"[4]; Example 3, FIG. 3, 10^-3M peptide, SP 4 hours after peptide, control 380 scratching",almost never induced
same,numbers of pain behavior during phase I,"[5]; 10^-3M (10 nmol/10 μl) peptide intrathecal, 2% formalin 4 hours later, 0-10 minutes after formalin",significantly decreased
same,numbers of pain behavior during phase II,"[5]; 10^-3M (10 nmol/10 μl) peptide intrathecal, 2% formalin 4 hours later, 10-60 minutes after formalin",significantly decreased
same,suppressing effects on formalin-induced pain behavior compared with Spantide I,"[5]; 10^-3M intrathecal, formalin 4 hours later",sustained longer compared with the effects of Spantide I

# Reference: US8853359B2, “Endokinin C/D-derived peptides” (University of Miyazaki, priority 2009, dated 2014)
